Source: PubChem BioAssay AID248 (DTP/NCI, 2004)
Values joined by “and” are separate entries in the source; they are usually repeats but may differ in a detail not shown here. Equal entries are not always repeated. Inconclusive results and toxic doses are left out. No stated cut-off is given here; in the data, active means T/C of 150% or more; inactive means T/C below 125%.

Tested on: L1210 leukemia ip in BDF1 mice, survival T/C
Assay: NCI In Vivo Anticancer Drug Screen. Data for tumor model L1210 Leukemia (intraperitoneal) in B6D2F1 (BDF1) mice
Conditions: endpoint: mean survival time, higher = longer survival
Outline: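 Each compound was tested against a transplantable tumor grown in mice. The endpoint was survival, with treated animals benchmarked against vehicle controls as a simple ratio.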

[1] = dose: 50.0 mg/kg/injection, schedule: Q01DX001 (ip), vehicle: saline
[2] = dose: 100.0 mg/kg/injection, schedule: Q01DX001 (ip), vehicle: saline
[3] = dose: 100.0 mg/kg/injection, schedule: Q01DX001 (ip), vehicle: saline with Tween-80
[4] = dose: 100.0 mg/kg/injection, schedule: Q01DX009 (ip), vehicle: saline with Tween-80
[5] = dose: 200.0 mg/kg/injection, schedule: Q01DX001 (ip), vehicle: saline with Tween-80
[6] = dose: 200.0 mg/kg/injection, schedule: Q01DX009 (ip), vehicle: saline with Tween-80
[7] = dose: 400.0 mg/kg/injection, schedule: Q01DX001 (ip), vehicle: saline with Tween-80
[8] = dose: 400.0 mg/kg/injection, schedule: Q01DX009 (ip), vehicle: saline with Tween-80
[9] = dose: 100.0 mg/kg/injection, schedule: Q01DX009 (ip), vehicle: Klucel (hydroxypropylcellulose) (HPC)
[10] = dose: 200.0 mg/kg/injection, schedule: Q01DX009 (ip), vehicle: Klucel (hydroxypropylcellulose) (HPC)
[11] = dose: 400.0 mg/kg/injection, schedule: Q01DX009 (ip), vehicle: Klucel (hydroxypropylcellulose) (HPC)
[12] = dose: 100.0 mg/kg/injection, schedule: Q04DX003 (ip), vehicle: Klucel (hydroxypropylcellulose) (HPC)
[13] = dose: 200.0 mg/kg/injection, schedule: Q04DX003 (ip), vehicle: Klucel (hydroxypropylcellulose) (HPC)
[14] = dose: 200.0 mg/kg/injection, schedule: Q01DX001 (ip), vehicle: saline
[15] = dose: 400.0 mg/kg/injection, schedule: Q01DX001 (ip), vehicle: saline
[16] = dose: 50.0 mg/kg/injection, schedule: Q01DX009 (ip), vehicle: saline
[17] = dose: 100.0 mg/kg/injection, schedule: Q01DX009 (ip), vehicle: saline
[18] = dose: 400.0 mg/kg/injection, schedule: Q04DX003 (ip), vehicle: Klucel (hydroxypropylcellulose) (HPC)
[19] = dose: 100.0 mg/kg/injection, schedule: Q04DX002 (ip), vehicle: saline
[20] = dose: 200.0 mg/kg/injection, schedule: Q04DX002 (ip), vehicle: saline

Measured: T/C

COC1CCCC[CH]1[Hg][Br] (centres undefined)
inactive: dose: 0.78 mg/kg/injection, schedule: Q01DX009 (ip), vehicle: saline with Tween-80 90 % of control | dose: 1.56 mg/kg/injection, schedule: Q01DX009 (ip), vehicle: saline with Tween-80 96 % of control | dose: 3.13 mg/kg/injection, schedule: Q01DX009 (ip), vehicle: saline with Tween-80 96 % of control | dose: 12.5 mg/kg/injection, schedule: Q01DX009 (ip), vehicle: saline with Tween-80 93 % of control

Cc1ccc(S(=O)(=O)OC2CC3c4ccccc4C2c2cccc[n+]23)cc1 (centres undefined)
inactive: dose: 12.5 mg/kg/injection, schedule: Q01DX001 (ip), vehicle: saline 103 % of control | dose: 25.0 mg/kg/injection, schedule: Q01DX001 (ip), vehicle: saline 115 % of control | dose: 25.0 mg/kg/injection, schedule: Q04DX003 (ip), vehicle: saline 99 % of control | [1] 110 % of control | dose: 50.0 mg/kg/injection, schedule: Q04DX003 (ip), vehicle: saline 94 % of control | [2] 105 % of control

Cc1ccc(S(=O)NOCCCCONS(=O)c2ccc(C)cc2)cc1 (centres undefined)
inactive: [3] 98 % of control | [4] 100 % of control and 89 % of control | dose: 100.0 mg/kg/injection, schedule: Q04DX002 (ip), vehicle: saline with Tween-80 96 % of control and 91 % of control | [5] 95 % of control | [6] 86 % of control and 87 % of control | dose: 200.0 mg/kg/injection, schedule: Q04DX002 (ip), vehicle: saline with Tween-80 93 % of control and 98 % of control | [7] 106 % of control | [8] 90 % of control | dose: 400.0 mg/kg/injection, schedule: Q04DX002 (ip), vehicle: saline with Tween-80 104 % of control and 105 % of control

Ic1ccc(C2CC(c3ccccc3)=NN2c2ccccc2)cc1 (centres undefined)
inactive: [4] 96 % of control | [6] 92 % of control | [8] 91 % of control

O=C(O)c1c(Br)c(Br)c(Br)c(Br)c1C(=O)Nc1ccc(Cl)c(Cl)c1
inactive: [9] 95 % of control | [10] 98 % of control | [11] 120 % of control

O=[N+]([O-])c1cccnc1Cl
inactive: dose: 50.0 mg/kg/injection, schedule: Q01DX009 (ip), vehicle: Klucel (hydroxypropylcellulose) (HPC) 107 % of control | [9] 95 % of control | [12] 92 % of control | [10] 95 % of control | [13] 91 % of control

O=C(CCCC(=O)N/N=C/c1ccc(I)cc1)N/N=C\c1ccc(I)cc1
inactive: [1] 100 % of control | [2] 93 % of control | [14] 93 % of control | [15] 97 % of control

NC(CO)CSCc1ccccc1 (centres undefined)
inactive: dose: 6.25 mg/kg/injection, schedule: Q01DX009 (ip), vehicle: saline 105 % of control | dose: 12.5 mg/kg/injection, schedule: Q01DX009 (ip), vehicle: saline 100 % of control | dose: 25.0 mg/kg/injection, schedule: Q01DX009 (ip), vehicle: saline 110 % of control and 113 % of control | [16] 100 % of control and 102 % of control | [17] 104 % of control

CC(=O)OC1CCC2(C)C(CCC3C2CCC2(C)C3CC3OC(CCC(C)(C)O)C(C)C32)C1 (centres undefined)
inactive: [3] 92 % of control | [5] 92 % of control | [7] 92 % of control

CNCCc1ccccc1
inactive: [2] 107 % of control | [14] 108 % of control

O=C(NCCCl)Nn1c2ccccc2c2ccccc21
inactive: [9] 86 % of control | [12] 104 % of control | [10] 95 % of control | [13] 98 % of control | [11] 88 % of control | [18] 106 % of control

CC1([N+](=O)[O-])COP(=O)(Nc2cccc(Br)c2)OC1 (centres undefined)
inactive: dose: 100.0 mg/kg/injection, schedule: Q01DX001 (ip), vehicle: carboxymethylcellulose (CMC) 96 % of control | dose: 200.0 mg/kg/injection, schedule: Q01DX001 (ip), vehicle: carboxymethylcellulose (CMC) 94 % of control | dose: 400.0 mg/kg/injection, schedule: Q01DX001 (ip), vehicle: carboxymethylcellulose (CMC) 100 % of control

O=P(O)(N(CCCl)CCCl)N1CCN(Cc2ccccc2)CC1
inactive: dose: 10.0 mg/kg/injection, schedule: Q01DX Z (ip), vehicle: other 95 % of control | dose: 30.0 mg/kg/injection, schedule: Q01DX Z (ip), vehicle: other 105 % of control | dose: 100.0 mg/kg/injection, schedule: Q01DX Z (ip), vehicle: other 108 % of control

OC/C=C/c1cccs1
inactive: [19] 98 % of control | [20] 95 % of control

CCCCCCCCCCCCn1cnc2c(=S)nc[nH]c21
inactive: dose: 12.5 mg/kg/injection, schedule: Q01DX005 (ip), vehicle: other 106 % of control | dose: 25.0 mg/kg/injection, schedule: Q01DX005 (ip), vehicle: other 101 % of control | dose: 50.0 mg/kg/injection, schedule: Q01DX005 (ip), vehicle: other 100 % of control | dose: 100.0 mg/kg/injection, schedule: Q01DX005 (ip), vehicle: other 106 % of control | dose: 200.0 mg/kg/injection, schedule: Q01DX005 (ip), vehicle: other 89 % of control

CSC1=NCCN1
inactive: [17] 104 % of control | dose: 200.0 mg/kg/injection, schedule: Q01DX009 (ip), vehicle: saline 100 % of control | dose: 400.0 mg/kg/injection, schedule: Q01DX009 (ip), vehicle: saline 104 % of control

CCCCN(CCCC)C(=S)[S-].CCCCN(CCCC)C(=S)[S-].[Zn]
inactive: dose: 37.5 mg/kg/injection, schedule: Q01DX009 (ip), vehicle: saline 90 % of control | dose: 75.0 mg/kg/injection, schedule: Q01DX001 (ip), vehicle: saline 88 % of control | dose: 75.0 mg/kg/injection, schedule: Q01DX009 (ip), vehicle: saline 90 % of control | dose: 75.0 mg/kg/injection, schedule: Q04DX003 (ip), vehicle: saline 98 % of control | dose: 150.0 mg/kg/injection, schedule: Q01DX001 (ip), vehicle: saline 93 % of control | dose: 150.0 mg/kg/injection, schedule: Q01DX009 (ip), vehicle: saline 86 % of control | dose: 150.0 mg/kg/injection, schedule: Q04DX003 (ip), vehicle: saline 87 % of control | dose: 300.0 mg/kg/injection, schedule: Q01DX001 (ip), vehicle: saline 89 % of control | dose: 300.0 mg/kg/injection, schedule: Q04DX003 (ip), vehicle: saline 93 % of control

O=C1c2ccccc2C(=O)C1c1ccccc1
inactive: [12] 102 % of control | [13] 104 % of control | [18] 106 % of control

CC(=O)c1ccc(NCc2cnc3nc(N)nc(N)c3n2)cc1
inactive: dose: 20.0 mg/kg/injection, schedule: Q01DX009 (ip), vehicle: Klucel (hydroxypropylcellulose) (HPC) 102 % of control | dose: 40.0 mg/kg/injection, schedule: Q01DX009 (ip), vehicle: Klucel (hydroxypropylcellulose) (HPC) 105 % of control | dose: 80.0 mg/kg/injection, schedule: Q01DX009 (ip), vehicle: Klucel (hydroxypropylcellulose) (HPC) 105 % of control

CN(C)C
inactive: [16] 101 % of control | [19] 105 % of control | dose: 100.0 mg/kg/injection, schedule: Q04DX003 (ip), vehicle: saline 98 % of control | [20] 97 % of control | dose: 200.0 mg/kg/injection, schedule: Q04DX003 (ip), vehicle: saline 94 % of control

O=[N+]([O-])c1cc(S(=O)(=O)C(F)F)ccc1Cl
inactive: dose: 25.0 mg/kg/injection, schedule: Q04DX003 (ip), vehicle: gum acacia 97 % of control | dose: 50.0 mg/kg/injection, schedule: Q01DX009 (ip), vehicle: gum acacia 93 % of control | dose: 50.0 mg/kg/injection, schedule: Q04DX003 (ip), vehicle: gum acacia 97 % of control | dose: 100.0 mg/kg/injection, schedule: Q01DX009 (ip), vehicle: gum acacia 88 % of control | dose: 100.0 mg/kg/injection, schedule: Q04DX003 (ip), vehicle: gum acacia 99 % of control and 102 % of control

O=C(/C=C\c1ccccc1)NCCCCNC(=O)/C=C/c1ccccc1
inactive: [2] 97 % of control | [14] 105 % of control | [15] 87 % of control
